Experimental data published in the NIST ThermoML archive (doi:10.1021/acs.jced.8b00537).

Assay: xn = mol fraction of the nth substance listed
Conditions: 100 kPa, Liquid; for viscosity: Capillary tube (Ostwald / Ubbelohde) method; for speed of sound: Frequency=3 MHz, Single path-length method; for mass density: Vibrating tube method

O=S(=O)([N-]S(=O)(=O)C(F)(F)F)C(F)(F)F.On1cc[n+](O)c1 [1,3-dihydroxyimidazolium bis(trifluoromethylsulfonyl)imide] + CCCO
Conditions | mass density [kg/m3] | speed of sound [m/s] | viscosity [mPa·s]
293.15 K, x1 = 0.0999 | 1039 | 1192.5 | 6.428
293.15 K, x1 = 0.1994 | 1207 | 1175.2 | 10.56
293.15 K, x1 = 0.2993 | 1333 | 1166.5 | 18.74
293.15 K, x1 = 0.3992 | 1430 | 1167 | 31.05
293.15 K, x1 = 0.4985 | 1510 | 1170.2 | 46.71
293.15 K, x1 = 0.5999 | 1576 | 1175.3 | 65.75
293.15 K, x1 = 0.6989 | 1631 | 1182.6 | 99.34
293.15 K, x1 = 0.7996 | 1680 | 1190.1 | 120.22
293.15 K, x1 = 0.8973 | 1719 | 1198.4 | 184.26
293.15 K, x1 = 1 | 1746 | 1208.2 | 238.6
298.15 K, x1 = 0.0999 | 1034 | 1177.8 | 5.606
298.15 K, x1 = 0.1994 | 1202 | 1161.9 | 9.087
298.15 K, x1 = 0.2993 | 1328 | 1154 | 15.55
298.15 K, x1 = 0.3992 | 1425 | 1155 | 25.3
298.15 K, x1 = 0.4985 | 1505 | 1158.3 | 37.27
298.15 K, x1 = 0.5999 | 1570 | 1163.5 | 51.4
298.15 K, x1 = 0.6989 | 1625 | 1171 | 76.1
298.15 K, x1 = 0.7996 | 1674 | 1178.4 | 90.44
298.15 K, x1 = 0.8973 | 1713 | 1186.7 | 135.12
298.15 K, x1 = 1 | 1740 | 1196.6 | 171.83
303.15 K, x1 = 0.0999 | 1030 | 1163.2 | 4.921
303.15 K, x1 = 0.1994 | 1197 | 1148.7 | 7.864
303.15 K, x1 = 0.2993 | 1323 | 1141.6 | 13.07
303.15 K, x1 = 0.3992 | 1419 | 1143.1 | 20.93
303.15 K, x1 = 0.4985 | 1499 | 1146.7 | 30.21
303.15 K, x1 = 0.5999 | 1564 | 1152 | 40.94
303.15 K, x1 = 0.6989 | 1620 | 1159.5 | 59.33
303.15 K, x1 = 0.7996 | 1668 | 1166.9 | –
303.15 K, x1 = 0.8973 | 1707 | 1175.2 | 101.71
303.15 K, x1 = 1 | 1735 | 1185.2 | 127.52
308.15 K, x1 = 0.0999 | 1025 | 1148.9 | 4.34
308.15 K, x1 = 0.1994 | 1192 | 1135.7 | 6.844
308.15 K, x1 = 0.2993 | 1318 | 1129.4 | 11.09
308.15 K, x1 = 0.3992 | 1414 | 1131.4 | 17.59
308.15 K, x1 = 0.4985 | 1494 | 1135.2 | 24.91
308.15 K, x1 = 0.5999 | 1559 | 1140.7 | 33.19
308.15 K, x1 = 0.6989 | 1614 | 1148.3 | 47.17
308.15 K, x1 = 0.7996 | 1662 | 1155.7 | 54.77
308.15 K, x1 = 0.8973 | 1702 | 1164 | 78.32
308.15 K, x1 = 1 | 1729 | 1174.1 | 96.92
313.15 K, x1 = 0.0999 | 1020 | 1134.6 | 3.849
313.15 K, x1 = 0.1994 | 1187 | 1122.8 | 5.991
313.15 K, x1 = 0.2993 | 1313 | 1117.3 | 9.541
313.15 K, x1 = 0.3992 | 1409 | 1119.8 | 14.92
313.15 K, x1 = 0.4985 | 1489 | 1123.9 | 20.85
313.15 K, x1 = 0.5999 | 1553 | 1129.5 | 27.38
313.15 K, x1 = 0.6989 | 1608 | 1137.2 | 37.93
313.15 K, x1 = 0.7996 | 1657 | 1144.6 | 43.92
313.15 K, x1 = 0.8973 | 1696 | 1153 | 61.38
313.15 K, x1 = 1 | 1723 | 1163.1 | 75.56
318.15 K, x1 = 0.0999 | 1016 | 1120.5 | 3.434
318.15 K, x1 = 0.1994 | 1182 | 1110.1 | 5.275
318.15 K, x1 = 0.2993 | 1308 | 1105.4 | 8.279
318.15 K, x1 = 0.3992 | 1404 | 1108.3 | 12.81
318.15 K, x1 = 0.4985 | 1483 | 1112.7 | 17.64
318.15 K, x1 = 0.5999 | 1548 | 1118.5 | 22.86
318.15 K, x1 = 0.6989 | 1603 | 1126.3 | 31.31
318.15 K, x1 = 0.7996 | 1651 | 1133.7 | 35.76
318.15 K, x1 = 0.8973 | 1690 | 1142.1 | 49.13
318.15 K, x1 = 1 | 1717 | 1152.3 | 59.8
323.15 K, x1 = 0.0999 | 1011 | 1106.4 | 3.072
323.15 K, x1 = 0.1994 | 1178 | 1097.4 | 4.675
323.15 K, x1 = 0.2993 | 1303 | 1093.6 | 7.234
323.15 K, x1 = 0.3992 | 1398 | 1097 | 11.09
323.15 K, x1 = 0.4985 | 1478 | 1101.6 | 15.11
323.15 K, x1 = 0.5999 | 1542 | 1107.6 | 19.34
323.15 K, x1 = 0.6989 | 1597 | 1115.5 | 25.89
323.15 K, x1 = 0.7996 | 1645 | 1123 | 29.52
323.15 K, x1 = 0.8973 | 1684 | 1131.4 | 39.97
323.15 K, x1 = 1 | 1711 | 1141.6 | 48.29
328.15 K, x1 = 0.0999 | 1006 | 1092.4 | 2.759
328.15 K, x1 = 0.1994 | 1173 | 1084.9 | 4.171
328.15 K, x1 = 0.2993 | 1298 | 1082 | 6.368
328.15 K, x1 = 0.3992 | 1393 | 1085.8 | 9.679
328.15 K, x1 = 0.4985 | 1472 | 1090.7 | 13.05
328.15 K, x1 = 0.5999 | 1537 | 1096.8 | 16.53
328.15 K, x1 = 0.6989 | 1592 | 1104.8 | 21.88
328.15 K, x1 = 0.7996 | 1640 | 1112.3 | 24.73
328.15 K, x1 = 0.8973 | 1679 | 1120.8 | 32.99
328.15 K, x1 = 1 | 1705 | 1131.1 | 39.57
333.15 K, x1 = 0.0999 | 1002 | 1078.5 | 2.491
333.15 K, x1 = 0.1994 | 1168 | 1072.4 | 3.742
333.15 K, x1 = 0.2993 | 1293 | 1070.4 | 5.644
333.15 K, x1 = 0.3992 | 1388 | 1074.7 | 8.509
333.15 K, x1 = 0.4985 | 1467 | 1080 | 11.37
333.15 K, x1 = 0.5999 | 1532 | 1086.1 | 14.29
333.15 K, x1 = 0.6989 | 1586 | 1094.2 | 18.68
333.15 K, x1 = 0.7996 | 1634 | 1101.8 | 20.94
333.15 K, x1 = 0.8973 | 1673 | 1110.3 | 27.57
333.15 K, x1 = 1 | 1700 | 1120.7 | 32.88
338.15 K, x1 = 0.0999 | 997 | 1064.5 | 2.255
338.15 K, x1 = 0.1994 | 1163 | 1060.1 | 3.375
338.15 K, x1 = 0.2993 | 1288 | 1059 | 5.034
338.15 K, x1 = 0.3992 | 1383 | 1063.7 | 7.522
338.15 K, x1 = 0.4985 | 1462 | 1069.3 | 9.989
338.15 K, x1 = 0.5999 | 1526 | 1075.6 | 12.46
338.15 K, x1 = 0.6989 | 1581 | 1083.8 | 16.12
338.15 K, x1 = 0.7996 | 1628 | 1091.5 | 17.87
338.15 K, x1 = 0.8973 | 1667 | 1100 | 23.34
338.15 K, x1 = 1 | 1694 | 1110.4 | 27.69
343.15 K, x1 = 0.0999 | 992 | 1050.7 | 2.051
343.15 K, x1 = 0.1994 | 1158 | 1048 | 3.057
343.15 K, x1 = 0.2993 | 1283 | 1047.8 | 4.514
343.15 K, x1 = 0.3992 | 1378 | 1052.8 | 6.692
343.15 K, x1 = 0.4985 | 1456 | 1058.9 | 8.831
343.15 K, x1 = 0.5999 | 1521 | 1065.1 | 10.95
343.15 K, x1 = 0.6989 | 1575 | 1073.5 | 14.03
343.15 K, x1 = 0.7996 | 1623 | 1081.2 | 15.41
343.15 K, x1 = 0.8973 | 1662 | 1089.8 | 19.94
343.15 K, x1 = 1 | 1688 | 1100.2 | 23.59
